The values that follow come from patent US4195018A, “3-[(S)-1'-Phenylethylamino]propylaminobleomycin, non-toxic salt thereof, and method for producing same” (Nippon Kayaku Kabushiki Kaisha, priority 1977, dated 1980).

For one series, the system named is HeLa S3 cell. Description: Action on cultivated HeLa S3 cell (growth inhibition). Format: cell-based. As to conditions: for ID50: percentage growth inhibition in 72 hours of culture.
The nature of series [1]: Solubility (physicochemical properties). As to conditions: solvents as named in the value.
A further series concerns lung of mice. Nature of the series: Toxicity to the lung of mice (pulmonary fibrosis). Format: in vivo, ICR strain mice. The following applies: for Grade: Relative value / Incidence: Relative value: Bleomycin complex = 1.0, 5 mg/kg i.p. x 10 days. How it is done: ICR strain mice (male, 15 weeks old), 12 in number per group, were used. […]. The dose was administered by intraperitoneal injection, once a day, for 10 consecutive days. After administration, the mice were bred for 5 weeks. After observation, the mice were slaughtered and autopsied to determine the extent of pulmonary fibrosis. […].

Series [2] has as its system mouse Ehrlich cancer (solid tumor). Description: Carcinostatic activity to mouse Ehrlich cancer (solid tumor). Format: in vivo, ICR strain mice. As to conditions: for Percentage inhibition: tumor weight on 15th day vs control; for ID50: Ehrlich solid tumor, 10 doses. As for the experimental part: Each 2×10^6 cells were transplanted subcutaneously into the inguinal region of ICR strain mice (male, 6 weeks old). After 24 hours, each mouse was administered with test preparations in the same manner as described in 1-2 above. On the 15th day after the subcutaneous transplantation, tumors were removed from each mouse and compared the weight with that of tumors developed in the control group, which had received no treatment, to determine the percentage inhibition.

The subject of a further series is AH66 ascites hepatoma. Description: Carcinostatic activity against ascites hepatoma (ascites type) in rats. The class given is in vivo, Donryu strain rats. The following applies: control = 100. As for the experimental part: Each 1×10^6 AH66 cells were transplanted intraperitoneally into Donryu strain rats. After 24 hours, the test preparation was intraperitoneally administered once a day for 10 consecutive days. During a period of 30 days after the transplantation, the weight of each rat and the number of dead and survival were observed.

Series [3] has as its system mouse squamous cell carcinoma induced by 20-methylcholanthrene. Nature of the series: Inhibitory activity against mouse squamous cell carcinoma induced by 20-methylcholanthrene. The class given is in vivo, ddy strain mice. The following applies: for Mortality: 62.5 mcg/mouse i.p. twice a week for 15 weeks; for Percentage inhibition: inhibition of carcinogenesis vs control, 62.5 mcg/mouse i.p. An excerpt:
An acetone solution of 20-MC was topically applied to the sheared back of ddy strain mice (male, 10 weeks old), twice a week, for 18 weeks. After 5 weeks from the beginning of the 20-MC treatment, 62.5 mcg/mouse of the test preparation was intraperitoneally applied, twice a week, during a period of 15 weeks. Within the first week after completion of the administration of test preparation, the region where 20-MC had been applied was pathologically examined for the incidence of carcinogenesis.

The test system of series [4] is Mycobacterium smegmatis ATCC 607 (Mycobacterium 607). Description: Antimicrobial potency by the cup method, bleomycin A2 as standard. As to conditions: for Antimicrobial potency M. 607: bleomycin A2 standard = 1,000 U/mg; for Antimicrobial potency: product batches of the Examples, bleomycin A2 (copper-free form) = 1,000 u/mg. The class given is cell-based. How it is done:
(§1) The antimicrobial potency was assayed by the cup method against Mycobacterium 607 and Bacillus subtilis PCI by using bleomycin A2 as standard (1,000 U/mg).
[Note: The antimicrobial potency was assayed using Mycobacterium smegmatis ATCC 607 as assay organism and assuming the potency of bleomycin A2 (copper-free form) as 1,000 u/mg. The same applies hereinafter.]

For a further series, the system named is Bacillus subtilis PCI. The description is as above. The class given is cell-based. The following applies: bleomycin A2 standard = 1,000 U/mg. As for the experimental part:
as §1

Series [5] deals with rats. Nature of the series: Acute toxicity in intraperitoneal route (LD50) in rats. As to conditions: rat.
In series [6] the test system is rats.
Where [7] appears, read: 3.12 mg/kg x 10 i.p., 30 days observation.

≈ marks a conversion by molar mass, not a printed value. Where “and” joins values, the source holds several entries; their conditions need not be identical. Identical values can stand only once. Entries after “also recorded” stand apart in the source; their conditions may differ.

With `Cc1c(N)nc(C(CC(N)=O)NCC(N)C(N)=O)nc1C(=O)NC(C(=O)NC(C)C(O)C(C)C(=O)NC(C(=O)NCCc1nc(-c2nc(C(=O)NCCCNC(C)c3ccccc3)cs2)cs1)C(C)O)C(OC1OC(CO)C(O)C(O)C1OC1OC(CO)C(O)C(OC(N)=O)C1O)c1c[nH]cn1` [NK631, 3-[(S)-1'-phenylethylamino]propylaminobleomycin], in the series with HeLa S3 cell (HeLa S3, 72 hours), the “Cell growth inhibition compared with Bleomycin complex” value is given as “twice as strongly as Bleomycin complex”. In the series on HeLa S3 cell, this compound yielded an ID50 of 0.82 µg/mL (≈ 0.556 µM).

As for `Cc1c(N)nc([C@H](CC(N)=O)NC[C@H](N)C(N)=O)nc1C(=O)N[C@H](C(=O)N[C@H](C)[C@@H](O)[C@H](C)C(=O)N[C@H](C(=O)NCCc1nc(-c2nc(C(=O)NCCCN[C@@H](C)c3ccccc3)cs2)cs1)[C@@H](C)O)[C@@H](O[C@@H]1O[C@@H](CO)[C@@H](O)[C@H](O)[C@@H]1O[C@H]1O[C@H](CO)[C@@H](O)[C@H](OC(N)=O)[C@@H]1O)c1cnc[nH]1.Cl.Cl.[Cu]` [3-[(S)-1'-phenylethylamino]propylaminobleomycin dihydrochloride (copper-containing form)], the Solubility entry in series [1] is given as “Soluble in water, methanol”.

For `Cc1c(N)nc(C(CC(N)=O)NCC(N)C(N)=O)nc1C(=O)NC(C(=O)NC(C)C(O)C(C)C(=O)NC(C(=O)NCCc1nc(-c2nc(C(=O)NCCCNC(C)c3ccccc3)cs2)cs1)C(C)O)C(OC1OC(CO)C(O)C(O)C1OC1OC(CO)C(O)C(OC(N)=O)C1O)c1cnc[nH]1.O=S(=O)(O)O` (mixture of isomers) [RS form, 3-[(R,S)-1'-phenylethylamino]propylaminobleomycin monosulfate (copper-free form), reference compound], in the series on lung of mice, the “Grade: Relative value” is 0.49. Besides, in the series with lung of mice, the “Incidence: Relative value” turned out to be 0.63. For the same compound, the ID50 is 0.80 µg/mL in the series on HeLa S3 cell and 0.31 mg/kg/day in [2]. Moreover, the Percentage inhibition in series [2] (0.03 mg/kg x 10) came out at 13; in series [2] (0.1 mg/kg x 10) it was 51; in series [2] (0.3 mg/kg x 10) it was 51; in series [2] (0.9 mg/kg x 10), 60; in series [2] (2.7 mg/kg x 10), 78; in series [3], 47.8. The “Relative value of average survival days” value in the series with AH66 ascites hepatoma (0.19 mg/kg x 10 i.p.) was found to be 121; with AH66 ascites hepatoma (0.39 mg/kg x 10 i.p.), 149; in the series with AH66 ascites hepatoma (0.78 mg/kg x 10 i.p.), 196; with AH66 ascites hepatoma (1.56 mg/kg x 10 i.p.), 257; with AH66 ascites hepatoma (setting [7]), 298. The Mortality in series [3] is reported as 1/12. Also, the “Antimicrobial potency M. 607” value in series [4] is reported as 7535 U/mg. Further, the “Antimicrobial potency B. Sub.” value with Bacillus subtilis PCI came to 1400 U/mg. Besides, in the series on rats [5], the LD50 was 150.6 mg(w)/kg.

On to `CC(=O)O.CC(=O)O.Cc1c(N)nc([C@H](CC(N)=O)NC[C@H](N)C(N)=O)nc1C(=O)N[C@H](C(=O)N[C@H](C)[C@@H](O)[C@H](C)C(=O)N[C@H](C(=O)NCCc1nc(-c2nc(C(=O)NCCCN[C@@H](C)c3ccccc3)cs2)cs1)[C@@H](C)O)[C@@H](O[C@@H]1O[C@@H](CO)[C@@H](O)[C@H](O)[C@@H]1O[C@H]1O[C@H](CO)[C@@H](O)[C@H](OC(N)=O)[C@@H]1O)c1cnc[nH]1`, for which the Antimicrobial potency in series [4] was 7,620 u/mg. Besides, the Solubility result in series [1] is on record as “Soluble in water, methanol, acetic acid, DMSO, DMF; also recorded: sparingly soluble in dioxane; also recorded: insoluble in ethanol”.

`Cc1c(N)nc([C@H](CC(N)=O)NC[C@H](N)C(N)=O)nc1C(=O)N[C@H](C(=O)N[C@H](C)[C@@H](O)[C@H](C)C(=O)N[C@H](C(=O)NCCc1nc(-c2nc(C(=O)NCCCN[C@@H](C)c3ccccc3)cs2)cs1)[C@@H](C)O)[C@@H](O[C@@H]1O[C@@H](CO)[C@@H](O)[C@H](O)[C@@H]1O[C@H]1O[C@H](CO)[C@@H](O)[C@H](OC(N)=O)[C@@H]1O)c1cnc[nH]1.Cl.Cl` [NK631 dihydrochloride (copper-free form)]: the Antimicrobial potency in series [4] was 7,834 u/mg and 7,820 u/mg and 7,845 u/mg. For the same compound, the Solubility entry in series [1] was “Soluble in water, methanol, acetic acid, DMSO, DMF; also recorded: sparingly soluble in dioxane; also recorded: insoluble in ethanol”.

As for `Cc1c(N)nc([C@H](CC(N)=O)NC[C@H](N)C(N)=O)nc1C(=O)N[C@H](C(=O)N[C@H](C)[C@@H](O)[C@H](C)C(=O)N[C@H](C(=O)NCCc1nc(-c2nc(C(=O)NCCCN[C@@H](C)c3ccccc3)cs2)cs1)[C@@H](C)O)[C@@H](O[C@@H]1O[C@@H](CO)[C@@H](O)[C@H](O)[C@@H]1O[C@H]1O[C@H](CO)[C@@H](O)[C@H](OC(N)=O)[C@@H]1O)c1cnc[nH]1.O=S(=O)(O)O` [NK631 monosulfate (copper-free form), 3-[(S)-1'-phenylethylamino]-propylaminobleomycin monosulfate (copper-free form)], the “Grade: Relative value” in the series on lung of mice was determined as 0.25. Moreover, the “Incidence: Relative value” with lung of mice was found to be 0.36. For the same compound, the “Fibrosis grade reduced to, as compared with RS form” value in the series on lung of mice (relative to RS form) is given as “about 1/2”. The “Fibrosis incidence reduced to, as compared with RS form” value with lung of mice (relative to RS form) is recorded as “about 1/2”. In addition, the “Fibrosis grade reduced to, as compared with bleomycin complex” value in the series with lung of mice (relative to bleomycin complex) is reported as 1/4. Besides, the “Fibrosis incidence reduced to, as compared with bleomycin complex” value in the series on lung of mice (relative to bleomycin complex) is 1/3. The Percentage inhibition in [2] (0.03 mg/kg x 10) is 19; in series [2] (0.1 mg/kg x 10), 24; in series [2] (0.3 mg/kg x 10), 39; in series [2] (0.9 mg/kg x 10), 68; in series [2] (2.7 mg/kg x 10) it was 84; in series [3] it was 47.8. Moreover, the ID50 in series [2] was determined as 0.35 mg/kg/day. In addition, the “Carcinostatic activity, times as high as that of the Bleomycin complex” value in [2] (relative to bleomycin complex) is “about 1.4 times”. Besides, the “Relative value of average survival days” value with AH66 ascites hepatoma (0.19 mg/kg x 10 i.p.) is 116; in the series on AH66 ascites hepatoma (0.39 mg/kg x 10 i.p.), 163; with AH66 ascites hepatoma (0.78 mg/kg x 10 i.p.) it was 216; with AH66 ascites hepatoma (1.56 mg/kg x 10 i.p.) it was 269; in the series with AH66 ascites hepatoma (setting [7]), 296. For the same compound, the Mortality in [3] is 1/12. The “Antimicrobial potency M. 607” value in series [4] turned out to be 7848 U/mg. Also, in [4], the Antimicrobial potency is 7,865 u/mg. The “Antimicrobial potency B. Sub.” value in the series on Bacillus subtilis PCI is given as 1550 U/mg. Also, the Solubility result in series [1] is recorded as “Soluble in water, methanol, acetic acid, DMSO, DMF; also recorded: sparingly soluble in dioxane; also recorded: insoluble in ethanol”. Besides, the “Subacute and chronic toxicity” value in the series on rats [6] and with dogs (dogs) was “comparable to Bleomycin complex” each time. For the same compound, the “Toxicity to the lung” value in the series with dogs (subacute and chronic toxicity study, species not stated separately) is on record as “lower than that of the Bleomycin complex”. Further, the LD50 in the series with rats [5] is reported as 155.0 mg(w)/kg.
